According to PubChem BioAssay (NCI):
Values joined by “and” are separate entries in the source; they are usually repeats but may differ in a detail not shown here. Equal values may be shown once.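 These data come from cells grown in 96-well plates and exposed to compound for 48 hours at five concentrations. TGI: concentration producing complete growth inhibition.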

Experiments:
Experiment in all cases: inhibition of tumour cell growth, NCI panel, 48 h
MDA-MB-231 breast = system: MDA-MB-231 breast
UACC-62 melanoma = system: UACC-62 melanoma
A549 NSCLC = system: A549 NSCLC
ACHN renal = system: ACHN renal
SNB-75 CNS = system: SNB-75 CNS
NCI-H460 lung = system: NCI-H460 lung
OVCAR-5 ovarian = system: OVCAR-5 ovarian
OVCAR-3 ovarian = system: OVCAR-3 ovarian
PC-3 prostate = system: PC-3 prostate
M14 melanoma = system: M14 melanoma
SF-268 CNS = system: SF-268 CNS

Compound | TGI (MDA-MB-231 breast) | TGI (UACC-62 melanoma) | TGI (A549 NSCLC) | TGI (ACHN renal) | TGI (SNB-75 CNS) | TGI (NCI-H460 lung) | TGI (OVCAR-5 ovarian) | TGI (OVCAR-3 ovarian) | TGI (PC-3 prostate) | TGI (M14 melanoma) | TGI (SF-268 CNS)
COc1ccc2[nH]c(Cl)c(/C=C3/C(=O)Nc4cc(C)c(OC)cc43)c2c1 | 20.6 µM | 15.2 µM | 92.6 µM | 21.4 µM | 23.4 µM | 12.9 µM | 27.2 µM | 6.46 µM | 16.1 µM | 14.2 µM | 19.3 µM
NCCCn1c2ccccc2c2c3c(c4c(c21)CCC(O)CC4)C(=O)NC3=O (stereo unspecified) | 14.4 µM | 17.3 µM | 21.6 µM | 12.1 µM | – | 14 µM | 15.5 µM | 12.2 µM | 16.2 µM | 18.2 µM | 4.43 µM
Cc1cc(CNC(=O)OCc2ccccc2)c(C)c2c1Oc1ccccc1O2 | > 60.5 µM | > 100 µM | 97.7 µM | > 100 µM | 36.3 µM | > 100 µM | > 100 µM | > 100 µM | > 100 µM | > 100 µM | > 74.3 µM
CCC1C(c2cccc(OC)c2O)c2cc3c(cc2OC1N1CCCC1)OCO3 (stereo unspecified) | – | 65.9 µM | 54.7 µM | 84.3 µM | 92.4 µM | 55.3 µM | 76.9 µM | 44.5 µM | 89.2 µM | 23.9 µM | 58.9 µM
COc1cc2c(c(OC)c1OC)-c1ccc(SC)c(=O)cc1[C@@H](OC(C)=O)CC2 | > 100 µM | > 100 µM | > 100 µM | > 100 µM | > 82.1 µM | > 100 µM | – | – | > 100 µM | > 100 µM | 25.1 µM
O=C1/C(=C\c2cccc(Oc3ccccc3)c2)S(=O)(=O)C(c2ccccc2)N1c1ccccc1Cl (stereo unspecified) | > 100 µM | 94.8 µM | > 100 µM | > 100 µM | 74.5 µM | > 100 µM | > 100 µM | 64.3 µM | > 100 µM | 89.1 µM | –
O=c1[nH]nc(-c2ccccc2)n1/N=C/c1ccncc1 | – | > 100 µM | > 100 µM | > 100 µM | > 100 µM | > 100 µM | > 100 µM | > 100 µM | > 100 µM | > 100 µM | > 100 µM
COC(=O)c1ccccc1C#CC#Cc1ccccc1C(=O)OC | > 10 µM | > 10 µM | > 10 µM | > 10 µM | – | > 10 µM | > 10 µM | 7.91 µM | > 10 µM | > 10 µM | > 10 µM
c1ccc(-c2sc(-c3cccs3)cc2Cc2cccs2)cc1 | > 10 µM | > 10 µM | > 10 µM | > 10 µM | > 10 µM | > 10 µM | – | – | > 10 µM | > 10 µM | > 10 µM
CCOc1cc(NC(C)=O)ccc1C(=O)NN1C(=O)C(Oc2ccccc2)C1c1ccccc1 (stereo unspecified) | > 100 µM | > 100 µM | – | > 100 µM | > 100 µM | > 100 µM | > 100 µM | > 100 µM | > 100 µM | – | > 100 µM
O=C1CSc2nc3ccccc3n2/C=N\N1 | > 100 µM | > 100 µM | > 100 µM | > 100 µM | – | > 100 µM | > 100 µM | – | > 100 µM | > 100 µM | > 100 µM
COc1ccc(N2C(=Nc3ccccc3)SC(=N/S(=O)(=O)c3ccccc3)/C2=N\S(=O)(=O)c2ccccc2)cc1 | 43.5 µM | 19.8 µM | 46.5 µM | 61.1 µM | 55 µM | 26.2 µM | 50.7 µM | – | 42.3 µM | > 100 µM | –
O=C1NC(N/N=C\C(O)C(O)C(O)CO)=N/C1=C/c1ccc(Cl)cc1 (stereo unspecified) | > 100 µM | – | > 100 µM | 52.7 µM and 48.1 µM | > 100 µM | > 100 µM | > 100 µM | 58.3 µM and 91.9 µM | > 100 µM | 77.8 µM | > 100 µM
CC(C)SC(C)(NC(=O)C1C(C)(C)CCC1(C)C)C(=O)O (stereo unspecified) | > 100 µM | – | > 100 µM | > 100 µM | > 100 µM | > 100 µM | > 100 µM | – | > 100 µM | > 100 µM | > 100 µM
CCOC(=O)Nc1c(C#N)[n+]([O-])c2cc(Cl)c(Cl)cc2[n+]1[O-] | 35.8 µM | 31.1 µM | 69.8 µM | – | 41.8 µM | 34.5 µM | – | 42.6 µM | 31.8 µM | 38.9 µM | 34.3 µM
O=C(Nc1nc2c(=O)[nH]cnc2s1)c1ccccc1 | – | > 100 µM | > 100 µM | > 100 µM | > 100 µM | > 100 µM | > 100 µM | > 100 µM | > 100 µM | – | > 100 µM
C=CCOCn1cnc2c(N)ncnc21 | > 100 µM | > 100 µM | > 100 µM | > 100 µM | > 100 µM | > 100 µM | > 100 µM | – | > 100 µM | > 100 µM | > 100 µM
COc1cccc(-c2ccc3c4c2O[C@H]2c5[nH]c6ccccc6c5C[C@@]5(O)[C@@H](C3)N(CC3CC3)CC[C@]425)c1 | 3.44 µM | 3.05 µM | 3.36 µM | 2.98 µM | – | 3.22 µM | 20.8 µM | 3.3 µM | 2.48 µM | 3.27 µM | 3.37 µM
O=C(Nc1c[nH]c(=O)[nH]c1=O)C(Cl)Cl | > 100 µM | > 100 µM | > 100 µM | > 100 µM | > 100 µM | – | – | > 100 µM | > 100 µM | > 100 µM | –
CCOC(=O)c1sc2nc(SC)nc3c2c1NC(=O)CN3c1cccc(F)c1 | 41.3 µM | > 100 µM | 28 µM | 27.3 µM | – | > 100 µM | > 100 µM | 43.9 µM | 34.4 µM | 50 µM | 28.1 µM
CCOC(=O)c1cc(C(=O)c2ccccc2)n2nc(-c3ccc(Cl)cc3)ccc12 | > 100 µM | 39.3 µM | 30.8 µM | 28.2 µM | – | 50.9 µM | 58 µM | – | 30.4 µM | 90.7 µM | 27.6 µM
Cc1ccc(OCC2OC(n3cnc4c(N(C)C)nc(Br)nc43)CC2Oc2ccc(C)cc2)cc1 (stereo unspecified) | > 100 µM | > 100 µM | > 100 µM | > 100 µM | – | > 100 µM | > 100 µM | > 100 µM | > 100 µM | > 100 µM | > 100 µM
